Results taken from patent publication US10000476B2, “Pyridone derivative, pharmaceutical containing the same and methods of use thereof” (KAKEN PHARMACEUTICAL CO., LTD., priority 2011, dated 2018).

These molecules were tested against TACE (Homo sapiens (Human), UniProt P78536) (assay: TACE inhibition test (in vitro)). Details: fluorescent synthetic substrate, 37° C., 1.5 hours.
Format: biochemical
Procedure: The nucleotide sequence of TACE has been reported by Moss et al. (Moss, M. L. et al., Nature 1997, 385, 733-736). Accordingly, the cDNA of TACE was obtained according to the prescribed method from THP-1 cells or the like, and then incorporated the cDNA into an expression vector. Next, this vector was transformed into mammalian cells or insect cells, and TACE expression was obtained.
The TACE inhibition test was carried out by measuring TACE activity in the presence and the absence of the test substance using the thus-obtained TACE as an enzyme, and a fluorescent synthetic substrate Nma(N-methylanthranilic acid)-Leu-Ala-Gln-Ala-Val-Arg-Ser-Ser-Lys(Dnp(dinitrophenyl))-D-Arg-NH2 (SEQ ID NO: 1) including the TACE-cleaved sequence of a membrane-bound TNF as a substrate. The TACE inhibition test method is shown below.
Namely, 90 μL of an enzyme solution prepared with an assay buffer A (50 mM tris-hydrochloric acid buffer (pH 7.5) including 200 mM sodium chloride, 5 mM calcium chloride, 10 μM zinc sulfate, and 2 mg/mL bovine serum albumin) and 90 μL of a fluorescent synthetic substrate prepared with an assay buffer B (50 mM tris-hydrochloric acid buffer (pH 7.5) including 200 mM sodium chloride, 5 mM calcium chloride, 10 μM zinc sulfate, and 0.05% PLURONIC F-68) were mixed together, and reacted at 37° C. for 1.5 hours. Enzyme activity was then determined by measuring with a fluorescence intensity meter (Labsystems, Fluoroskan Ascent) at an excitation wavelength of 355 nm and a measurement wavelength of 460 nm.
From the enzyme activity in the presence or the absence of the test substance, the inhibition rate was determined, and the 50% inhibitiory concentration (IC50) of the test substance was calculated.

Sequence of TACE (P78536 215-824): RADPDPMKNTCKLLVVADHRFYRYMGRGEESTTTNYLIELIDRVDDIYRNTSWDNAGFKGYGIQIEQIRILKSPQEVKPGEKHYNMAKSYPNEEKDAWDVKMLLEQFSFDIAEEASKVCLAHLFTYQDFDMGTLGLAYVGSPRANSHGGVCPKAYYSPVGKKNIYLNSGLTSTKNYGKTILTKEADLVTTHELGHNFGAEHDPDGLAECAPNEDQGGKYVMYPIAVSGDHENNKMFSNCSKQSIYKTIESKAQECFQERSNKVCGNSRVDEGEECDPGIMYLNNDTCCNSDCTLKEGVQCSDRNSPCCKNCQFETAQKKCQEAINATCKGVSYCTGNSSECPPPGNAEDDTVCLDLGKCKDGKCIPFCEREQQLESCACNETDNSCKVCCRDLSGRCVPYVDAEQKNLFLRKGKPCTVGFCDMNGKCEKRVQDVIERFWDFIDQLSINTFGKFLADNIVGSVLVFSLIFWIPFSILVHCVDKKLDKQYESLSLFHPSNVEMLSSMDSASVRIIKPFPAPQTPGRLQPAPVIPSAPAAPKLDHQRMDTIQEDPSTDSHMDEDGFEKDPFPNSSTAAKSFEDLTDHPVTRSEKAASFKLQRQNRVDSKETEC

Row | IC50 [nM] | Compound
1 | < 100 | COc1ccc(C2(Cn3cccc(C)c3=O)NC(=O)NC2=O)cc1 (stereo not drawn) [Compound I-2, 5-(4-methoxyphenyl)-5-[(3-methyl-2-oxopyridin-1(2H)-yl)methyl]imidazolidine-2,4-dione]
2 | < 100 | Cc1cccn(CC2(c3ccc(C#N)cc3)NC(=O)NC2=O)c1=O (stereo not drawn) [Compound I-3, 4-{4-[(3-methyl-2-oxopyridin-1(2H)-yl)methyl]-2,5-dioxoimidazolidine-4-yl}benzonitrile]
3 | < 100 | COc1cccc(C2(Cn3cccc(C)c3=O)NC(=O)NC2=O)c1 (stereo not drawn) [Compound I-4, 5-(3-methoxyphenyl)-5-[(3-methyl-2-oxopyridin-1(2H)-yl)methyl]imidazolidine-2,4-dione]
4 | < 100 | Cc1cccn(CC2(c3ccsc3)NC(=O)NC2=O)c1=O (stereo not drawn) [Compound I-5, 5-[(3-methyl-2-oxopyridin-1(2H)-yl)methyl]-5-(thiophen-3-yl)imidazolidine-2,4-dione]
5 | < 100 | Cc1cccn(CC2(c3cc4ccccc4o3)NC(=O)NC2=O)c1=O (stereo not drawn) [Compound I-6, 5-(benzofuran-2-yl)-5-[(3-methyl-2-oxopyridin-1(2H)-yl)methyl]imidazolidine-2,4-dione]
6 | < 100 | Cc1cccn(CC2(c3ccccn3)NC(=O)NC2=O)c1=O (stereo not drawn) [Compound I-7, 5-[(3-methyl-2-oxopyridin-1(2H)-yl)methyl]-5-(pyridin-2-yl)imidazolidine-2,4-dione]
7 | < 100 | Cc1cccn(CC2(c3cccnc3)NC(=O)NC2=O)c1=O (stereo not drawn) [Compound I-8, 5-[(3-methyl-2-oxopyridin-1(2H)-yl)methyl]-5-(pyridin-3-yl)imidazolidine-2,4-dione]
8 | < 100 | Cc1cccn(CC2(c3ccc(Br)cc3)NC(=O)NC2=O)c1=O (stereo not drawn) [Compound I-11, 5-(4-bromophenyl)-5-[(3-methyl-2-oxopyridin-1(2H)-yl)methyl]imidazolidine-2,4-dione]
9 | < 100 | COc1cc(C2(Cn3cccc(C)c3=O)NC(=O)NC2=O)ccc1F (stereo not drawn) [Compound I-12, 5-(4-fluoro-3-methoxyphenyl)-5-[(3-methyl-2-oxopyridin-1(2H)-yl)methyl]imidazolidine-2,4-dione]
10 | < 100 | COCOc1ccc(C2(Cn3cccc(C)c3=O)NC(=O)NC2=O)cc1 (stereo not drawn) [Compound I-13, 5-[4-(methoxymethoxy)phenyl]-5-[(3-methyl-2-oxopyridin-1(2H)-yl)methyl]imidazolidine-2,4-dione]
11 | < 100 | COc1ccc(C2(Cn3cccc(C)c3=O)NC(=O)NC2=O)cc1F (stereo not drawn) [Compound I-14, 5-(3-fluoro-4-methoxyphenyl)-5-[(3-methyl-2-oxopyridin-1(2H)-yl)methyl]imidazolidine-2,4-dione]
12 | < 100 | Cc1cccn(CC2(c3ccc(F)cc3)NC(=O)NC2=O)c1=O (stereo not drawn) [Compound I-15, 5-(4-fluorophenyl)-5-[(3-methyl-2-oxopyridin-1(2H)-yl)methyl]imidazolidine-2,4-dione]
13 | < 100 | COc1ccc(C2(Cn3cccc(C)c3=O)NC(=O)NC2=O)cc1OC (stereo not drawn) [Compound I-16, 5-(3,4-dimethoxyphenyl)-5-[(3-methyl-2-oxopyridin-1(2H)-yl)methyl]imidazolidine-2,4-dione]
14 | < 100 | Cc1cccn(CC2(c3ccc(C(C)(C)C)cc3)NC(=O)NC2=O)c1=O (stereo not drawn) [Compound I-17, 5-[4-(tert-butyl)phenyl]-5-[(3-methyl-2-oxopyridin-1(2H)-yl)methyl]imidazolidine-2,4-dione]
15 | < 100 | COc1ccc(C2(Cn3cccc(C)c3=O)NC(=O)NC2=O)c(OC)c1 (stereo not drawn) [Compound I-18, 5-(2,4-dimethoxyphenyl)-5-[(3-methyl-2-oxopyridin-1(2H)-yl)methyl]imidazolidine-2,4-dione]
16 | < 100 | Cc1cccn(CC2(c3cccc(C(F)(F)F)c3)NC(=O)NC2=O)c1=O (stereo not drawn) [Compound I-19]
17 | < 100 | COc1ccc(OC)c(C2(Cn3cccc(C)c3=O)NC(=O)NC2=O)c1 (stereo not drawn) [Compound I-20, 5-(2,5-dimethoxyphenyl)-5-[(3-methyl-2-oxopyridin-1(2H)-yl)methyl]imidazolidine-2,4-dione]
18 | < 100 | COc1cc(F)ccc1C1(Cn2cccc(C)c2=O)NC(=O)NC1=O (stereo not drawn) [Compound I-21, 5-(4-fluoro-2-methoxyphenyl)-5-[(3-methyl-2-oxopyridin-1(2H)-yl)methyl]imidazolidine-2,4-dione]
19 | < 100 | Cc1cccn(CC2(c3ccc4occc4c3)NC(=O)NC2=O)c1=O (stereo not drawn) [Compound I-22, 5-(benzofuran-5-yl)-5-[(3-methyl-2-oxopyridin-1(2H)-yl)methyl]imidazolidine-2,4-dione]
20 | < 100 | Cc1cccn(CC2(c3ccc4sccc4c3)NC(=O)NC2=O)c1=O (stereo not drawn) [Compound I-23, 5-(benzo[b]thiophen-5-yl)-5-[(3-methyl-2-oxopyridin-1(2H)-yl)methyl]imidazolidine-2,4-dione]
21 | 100 to 1000 | COc1ccc(OC(F)(F)F)cc1C1(Cn2cccc(C)c2=O)NC(=O)NC1=O (stereo not drawn) [Compound I-24, 5-[2-methoxy-5-(trifluoromethoxy)phenyl]-5-[(3-methyl-2-oxopyridin-1(2H)-yl)methyl]imidazolidine-2,4-dione]
22 | < 100 | Cc1cccn(CC2(c3ccc(S(C)(=O)=O)cc3)NC(=O)NC2=O)c1=O (stereo not drawn) [Compound I-25, 5-[(3-methyl-2-oxopyridin-1(2H)-yl)methyl]-5-[4-(methylsulfonyl)phenyl]imidazolidine-2,4-dione]
23 | < 100 | Cc1cccn(CC2(c3ccc4c(c3)CCCO4)NC(=O)NC2=O)c1=O (stereo not drawn) [Compound I-26, 5-(chroman-6-yl)-5-[(3-methyl-2-oxopyridin-1(2H)-yl)methyl]imidazolidine-2,4-dione]
24 | < 100 | Cc1cccn(CC2(c3cccc(F)c3)NC(=O)NC2=O)c1=O (stereo not drawn) [Compound I-28, 5-(3-fluorophenyl)-5-[(3-methyl-2-oxopyridin-1(2H)-yl)methyl]imidazolidine-2,4-dione]
25 | < 100 | Cc1cccn(CC2(c3cc(F)c(F)cc3F)NC(=O)NC2=O)c1=O (stereo not drawn) [Compound I-29, 5-[(3-methyl-2-oxopyridin-1(2H)-yl)methyl]-5-(2,4,5-trifluorophenyl)imidazolidine-2,4-dione]
26 | < 100 | Cc1cc(C2(Cn3cccc(C)c3=O)NC(=O)NC2=O)ccc1F (stereo not drawn) [Compound I-30, 5-(4-fluoro-3-methylphenyl)-5-[(3-methyl-2-oxopyridin-1(2H)-yl)methyl]imidazolidine-2,4-dione]
27 | < 100 | Cc1cccn(CC2(c3ccc(-c4ccncc4)cc3)NC(=O)NC2=O)c1=O (stereo not drawn) [Compound I-31, 5-[(3-methyl-2-oxopyridin-1(2H)-yl)methyl]-5-[4-(pyridin-4-yl)phenyl]imidazolidine-2,4-dione]
28 | < 100 | Cc1cccn(CC2(c3ccc(-c4cccnc4)cc3)NC(=O)NC2=O)c1=O (stereo not drawn) [Compound I-32, 5-[(3-methyl-2-oxopyridin-1(2H)-yl)methyl]-5-[4-(pyridin-3-yl)phenyl]imidazolidine-2,4-dione]
29 | < 100 | Cc1cccn(CC2(c3ccc(C#CC(C)(C)C)cc3)NC(=O)NC2=O)c1=O (stereo not drawn) [Compound I-33, 5-[4-(3,3-dimethylbut-1-yn-1-yl)phenyl]-5-[(3-methyl-2-oxopyridin-1(2H)-yl)methyl]imidazolidine-2,4-dione]
30 | < 100 | Cc1ccc(Oc2ccc(C3(Cn4cccc(C)c4=O)NC(=O)NC3=O)cc2)cc1 (stereo not drawn) [Compound I-34, 5-[(3-methyl-2-oxopyridin-1(2H)-yl)methyl]-5-[4-(p-tolyloxy)phenyl]imidazolidine-2,4-dione]
